Among the data in patent publication US20060276520A1 (priority 2002, published 2006) are IC50 values, retold here.

Values joined by “and” are separate entries in the source; they are usually repeats but may differ in a detail not shown here. Equal entries are not always repeated.

One test has as its target APC2/APC11 (Homo sapiens, UniProt Q9NYG5+Q9UJX6). In words: biochemical.
The target in another test is MDM2/P53 (Homo sapiens, UniProt Q00987). The experiment in a line: biochemical.
Chain of MDM2/P53 (Q00987 whole entry): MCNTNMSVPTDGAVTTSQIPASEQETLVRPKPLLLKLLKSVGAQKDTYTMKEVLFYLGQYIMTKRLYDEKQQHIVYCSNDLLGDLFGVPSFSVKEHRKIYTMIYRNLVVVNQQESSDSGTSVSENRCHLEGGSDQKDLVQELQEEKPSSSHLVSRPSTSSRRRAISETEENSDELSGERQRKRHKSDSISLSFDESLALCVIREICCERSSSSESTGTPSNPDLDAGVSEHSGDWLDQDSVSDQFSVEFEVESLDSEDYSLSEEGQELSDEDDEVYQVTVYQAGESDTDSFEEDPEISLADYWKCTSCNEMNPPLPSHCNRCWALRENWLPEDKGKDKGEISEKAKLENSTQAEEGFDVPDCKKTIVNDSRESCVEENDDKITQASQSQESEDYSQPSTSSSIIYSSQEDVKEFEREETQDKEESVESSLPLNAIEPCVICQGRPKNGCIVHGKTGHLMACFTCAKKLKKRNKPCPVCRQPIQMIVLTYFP

Chain of APC2/APC11 (Q9UJX6 whole entry): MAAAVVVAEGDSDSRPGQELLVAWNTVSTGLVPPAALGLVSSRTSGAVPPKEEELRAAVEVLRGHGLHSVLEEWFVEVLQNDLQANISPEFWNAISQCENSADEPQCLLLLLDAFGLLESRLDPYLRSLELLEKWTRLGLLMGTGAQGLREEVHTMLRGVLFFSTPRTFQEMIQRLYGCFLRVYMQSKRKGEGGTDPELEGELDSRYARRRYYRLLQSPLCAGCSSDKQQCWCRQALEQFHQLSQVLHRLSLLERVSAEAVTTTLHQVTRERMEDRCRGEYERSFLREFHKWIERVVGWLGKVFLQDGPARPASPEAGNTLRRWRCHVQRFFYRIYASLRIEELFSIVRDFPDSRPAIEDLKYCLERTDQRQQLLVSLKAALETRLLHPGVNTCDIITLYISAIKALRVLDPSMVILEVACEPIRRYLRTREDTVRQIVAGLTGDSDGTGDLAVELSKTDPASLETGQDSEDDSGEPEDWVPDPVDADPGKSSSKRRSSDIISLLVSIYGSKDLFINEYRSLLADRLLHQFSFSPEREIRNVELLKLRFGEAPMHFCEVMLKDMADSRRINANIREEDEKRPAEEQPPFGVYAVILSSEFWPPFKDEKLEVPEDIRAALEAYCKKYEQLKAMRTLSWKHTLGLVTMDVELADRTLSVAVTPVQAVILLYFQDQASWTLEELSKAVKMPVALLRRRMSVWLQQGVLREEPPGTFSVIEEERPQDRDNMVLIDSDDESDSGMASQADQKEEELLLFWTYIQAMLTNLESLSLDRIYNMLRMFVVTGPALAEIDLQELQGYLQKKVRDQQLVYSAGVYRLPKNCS
Chain of APC2/APC11 (Q9NYG5 whole entry): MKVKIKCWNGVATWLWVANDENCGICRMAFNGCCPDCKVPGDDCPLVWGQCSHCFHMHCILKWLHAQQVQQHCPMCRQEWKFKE

The term IC50 denotes the concentration that gives 50% inhibition. Low readings indicate greater potency in that assay, high ones weaker potency in that assay. On to `CN1C(=O)/C(=C/c2ccc(-c3ccc(S(N)(=O)=O)cc3)o2)SC1=S` [Compound 23, 4-{5-[(Z)-(3-methyl-4-oxo-2-thioxo-1,3-thiazolidin-5-ylidene)methyl]-2-furyl}benzenezulffonamide], for which the IC50 stood at 5150 nM against APC2/APC11 and 7940 nM against MDM2/P53.
In the case of `O=C(O)CN1C(=O)/C(=C\c2ccc(-c3ccc(Cl)cc3)o2)SC1=S` [Compound 145, ((5E)-5-{[5-(4-chlorophenyl)-2-furyl]methylene}-4-oxo-2-thioxo-1,3-thiazolidin-3-yl)acetic acid], the IC50 against APC2/APC11 came to 10000 nM.
On to `O=C1/C(=C\c2ccc(-c3cccc([N+](=O)[O-])c3)o2)SC(=S)N1Cc1ccccc1` [Compound 98, (5E)-3-benzyl-5-{[5-(3-nitrophenyl)-2-furyl]methylene}-2-thioxo-1,3-thiazolidin-4-one], for which, at MDM2/P53, the half-maximal inhibitory concentration (IC50) turned out to be 11600 nM. This counts as double-digit micromolar.
In the case of `O=C1NC(=S)S/C1=C/c1ccc(-c2ccc(Cl)cc2)o1` [Compound 238, (5E)-5-{[5-(4-chlorophenyl)-2-furyl]methylene}-2-thioxo-1,3-thiazolidin-4-one], the IC50 at APC2/APC11 was 5000 nM.
With `O=C(O)CN1C(=O)/C(=C\c2ccc(-c3cccc(C(F)(F)F)c3)o2)SC1=S` [Compound 146, [(5E)-4-oxo-2-thioxo-5-({5-[3-(trifluoromethyl)phenyl]-2-furyl]methylene)-1,3-thiazolidin-3-yl]acetic acid], at APC2/APC11, it took 10000 nM to reach half-maximal inhibition (IC50). Compared with the last compound, the IC50 is about 2-fold higher.
`NS(=O)(=O)c1ccc(-c2ccc(/C=C3\SC(=S)N(CCc4ccccc4)C3=O)o2)cc1` [Compound 103, 4-(5-{(Z)-[4-oxo-3-(2-phenylethyl)-2-thioxo-1,3-thiazolidin-5-ylidene]methyl}-2-furyl)benzenesulfonamide] yielded an IC50 against MDM2/P53 of 3870 nM.
As to `O=C1/C(=C/c2ccc(-c3ccc(Br)cc3)o2)SC(=S)N1c1ccccc1` [Compound 27, (5Z)-5-{[5-(4-bromophenyl)-2-furyl]methylene}-3-phenyl-2-thioxo-1,3-thiazolidin-4-one], it took 10700 nM to reach half-maximal inhibition at MDM2/P53 (IC50).
`O=C1/C(=C/c2ccc(-c3ccccc3Cl)o2)SC(=S)N1Cc1ccc2c(c1)OCO2` [Compound 299, (5Z)-3-(1,3-benzodioxol-5-ylmethyl)-5-{[5-(2-chlorophenyl)-2-furyl]methylene}-2-thioxo-1,3-thiazolidin-4-one] came in with an IC50 on MDM2/P53 of 450 nM.
In the case of `O=C(O)CCN1C(=O)/C(=C/c2ccc(-c3ccc(Cl)cc3Cl)o2)SC1=S` [Compound 77, 3-((5Z)-5-{[5-(2,4-dichlorophenyl)-2-furyl]methylene}-4-oxo-2-thioxo-1,3-thiazolidin-3-yl)propanoic acid], inhibition against MDM2/P53 was half-maximal at 810 nM (IC50).
As for `O=C1/C(=C\c2ccc(-c3cccc(C(F)(F)F)c3)o2)SC(=S)N1Cc1ccccc1` [Compound 54, (5E)-3-benzyl-2-thioxo-5-({5-[3-(trifluoromethyl)phenyl]-2-furyl}methylene)-1,3-thiazolidin-4-one], the IC50 was determined as 35 nM at APC2/APC11 and 74 nM against MDM2/P53.
Turning to `O=C1/C(=C\c2ccc(-c3ccccc3Cl)o2)SC(=S)N1C1CCS(=O)(=O)C1` (stereo not drawn) [Compound 99, (5E)-5-{[5-(2-chlorophenyl)-2-furyl]methylene}-3-(1,1-dioxidotetrahydro-3-thienyl)-2-thioxo-1,3-thiazolidin-4-one], the IC50 at MDM2/P53 was found to be 210 nM.
As to `O=C1/C(=C/c2ccc(-c3ccccc3Cl)o2)SC(=S)N1CCc1cccs1` [Compound 275, (5Z)-5-{[5-(2-chlorophenyl)-2-furyl]methylene}-3-[2-(2-thienyl)ethyl]-2-thioxo-1,3-thiazolidin-4-one], the IC50 against APC2/APC11 was 320 nM; against MDM2/P53 it was 1160 nM.
For `O=C(O)CCN1C(=O)/C(=C/c2ccc(-c3ccc(Br)cc3)o2)SC1=S` [Compound 25, 3-((5Z)-5-{[5-(4-bromophenyl)-2-furyl]methylene}-4-oxo-2-thioxo-1,3-thiazolidin-3-yl)propanoic acid], the IC50 on APC2/APC11 was determined as 2060 nM; on MDM2/P53, 5640 nM.
Compound `O=C1NC(=S)S/C1=C/c1ccc(-c2cc(Cl)ccc2Cl)o1` [Compound 270, (5E)-5-{[5-(2,5-dichlorophenyl)-2-furyl]methylene}-2-thioxo-1,3-thiazolidin-4-one] registered an IC50 against APC2/APC11 of 3000 nM. This counts as single-digit micromolar.
On MDM2/P53, `CCOc1ccc(N2C(=O)/C(=C\c3ccc(-c4ccc(Br)cc4)o3)SC2=S)cc1` [Compound 69, (5E)-5-{[5-(4-bromophenyl)-2-furyl]mthylene}-3-(4-ethoxyphenyl)-2-thioxo-1,3-thiazolidin-4-one] came in with an IC50 of 14200 nM.
The compound `O=C(O)CCN1C(=O)/C(=C\c2ccc(-c3ccc(Cl)c(Cl)c3)o2)SC1=S` [Compound 256, 3-((5E)-5-{[5-(3,4-dichlorophenyl)-2-furyl]methylene}-4-oxo-2-thioxo-1,3-thiazolidin-3-yl)propanoic acid] had an IC50 on MDM2/P53 of 530 nM.
`CN1C(=O)/C(=C\c2ccc(-c3cccc([N+](=O)[O-])c3)o2)SC1=S` [Compound 183, (5E)-3-methyl-5-{[5-(3-nitrophenyl)-2-furyl]methylene}-2-thioxo-1,3-thiazolidin-4-one]: at APC2/APC11, 100 nM corresponded to half-maximal inhibition (IC50).
As to `CC(C)(C)OC(=O)[C@H](Cc1ccccc1)NC(=O)CN1C(=O)/C(=C/c2ccc(-c3ccccc3Cl)o2)SC1=S` [Compound 301, tert-butyl N-[((5Z)-5-{[5-(2-chlorophenyl)-2-furyl]methylene}-4-oxo-2-thioxo-1,3-thiazolidin-3-yl)acetyl]phenylalaninate], the IC50 against APC2/APC11 turned out to be 410 nM; on MDM2/P53 it was 930 nM.
For the compound `CN1C(=O)/C(=C\c2ccc(-c3ccc(Cl)cc3)o2)SC1=S` [Compound 29, (5E)-5-{[5-(4-chlorophenyl)-2-furyl]methylene}-3-methyl-2-thioxo-1,3-thiazolidin-4-one], the IC50 against APC2/APC11 came out at 1440 nM; at MDM2/P53 it was 1210 nM.
With `O=C(O)c1cccc(-c2ccc(/C=C3/SC(=S)N(c4cccc(Cl)c4)C3=O)o2)c1` [Compound 46, 3-(5-{(E)-[3-(3-chlorophenyl)-4-oxo-2-thioxo-1,3-thiazolidin-5-ylidene]methyl}-2-furyl)benzoic acid], the IC50 against APC2/APC11 was found to be 910 nM; against MDM2/P53, 4920 nM.
Compound `O=C1/C(=C/c2ccc(-c3ccccc3Cl)o2)SC(=S)N1CCc1ccccn1` [Compound 278, (5Z)-5-{[5-(2-chlorophenyl)-2-furyl]methylene}-3-(2-pyridin-2-ylethyl)-2-thioxo-1,3-thiazolidin-4-one] displayed an IC50 against MDM2/P53 of 5210 nM. In other words, the single-digit micromolar range.
Consider `O=C1/C(=C/c2ccc(-c3ccccc3Cl)o2)SC(=S)N1Cc1ccco1` [Compound 280, (5Z)-5-{[5-(2-chlorophenyl)-2-furyl]methylene}-3-(2-furylmethyl)-2-thioxo-1,3-thiazolidin-4-one], for which the values for the IC50 at APC2/APC11 and against MDM2/P53 were 560 nM and 250 nM, respectively.
The compound `O=C1C(Cc2ccc(-c3ccccc3Cl)o2)SC(=S)N1Cc1ccc2c(c1)OCO2` (stereo not drawn) [Compound 305, 3-(1,3-benzodioxol-5-ylmethyl)-5-{[5-(2-chlorophenyl)-2-furyl]methyl}-2-thioxo-1,3-thiazolidin-4-one] had an IC50 at MDM2/P53 of 10800 nM. This lies in the double-digit micromolar range.
`C[C@H](NC(=O)CN1C(=O)/C(=C/c2ccc(-c3ccccc3Cl)o2)SC1=S)C(=O)OC(C)(C)C` [Compound 302, tert-butyl N-[((5Z)-5-{[5-(2-chlorophenyl)-2-furyl]methylene}-4-oxo-2-thioxo-1,3-thiazolidin-3-yl)acetyl]alaninate] showed an IC50 against MDM2/P53 of 4600 nM.
Turning to `O=C1/C(=C\c2ccc(-c3ccc(Cl)cc3)o2)SC(=S)N1C1CCS(=O)(=O)C1` (stereo not drawn) [Compound 40, (5E)-5-{[5-(4-chlorophenyl)-2-furyl]methylene}-3-(1,1-dioxidotetrahydro-3-thienyl)-2-thioxo-1,3-thiazolidin-4-one], at MDM2/P53, 5520 nM corresponded to half-maximal inhibition (IC50).
On to `Cc1c(N2C(=O)/C(=C\c3ccc(-c4ccc(Br)cc4)o3)SC2=S)c(=O)n(-c2ccccc2)n1C` [Compound 51, (5E)-5-{[5-(4-bromophenyl)-2-furyl]methylene}-3-(1,5-dimethyl-3-oxo-2-phenyl-2,3-dihydro-1H-pyrazol-4-yl)-2-thioxo-1,3-thiazolidin-4-one], for which the IC50 at APC2/APC11 was 12100 nM; against MDM2/P53, 9240 nM.
With `C=CCN1C(=O)/C(=C\c2ccc(-c3cccc(C(F)(F)F)c3)o2)SC1=S` [Compound 63, (5E)-3-allyl-2-thioxo-5-({5-[3-(trifluoromethyl)phenyl]-2-furyl}methylene)-1,3-thiazolidin-4-one], on APC2/APC11, half-maximal inhibition (IC50) was put at 200 nM.
In turn, `O=C1/C(=C/c2ccc(-c3ccccc3)o2)SC(=S)N1c1ccccc1` [Compound 28, (5Z)-3-phenyl-5-[(5-phenyl-2-furyl)methylene]-2-thioxo-1,3-thiazolidin-4-one] registered an IC50 against MDM2/P53 of 800 nM.
On to `O=C1/C(=C\c2ccc(-c3ccc([N+](=O)[O-])cc3)o2)SC(=S)N1CCc1ccccc1` [Compound 75, (5E)-5-{[5-(4-nitrophenyl)-2-furyl]methylene}-3-(2-phenylethyl)-2-thioxo-1,3-thiazolidin-4-one], for which it took 13600 nM to reach half-maximal inhibition against MDM2/P53 (IC50).
On MDM2/P53, `O=C1/C(=C/c2ccc(-c3cccc([N+](=O)[O-])c3)o2)SC(=S)N1CC1CCCO1` (stereo not drawn) [Compound 254, (5Z)-5-{[5-(3-nitrophenyl)-2-furyl]methylene}-3-(tetrahydrofuran-2-ylmethyl)-2-thioxo-1,3-thiazolidin-4-one] displayed an IC50 of 24800 nM.
As to `O=C(O)c1cccc(-c2ccc(/C=C3\SC(=S)N(C4CCCCC4)C3=O)o2)c1` [Compound 176, 3-{5-[(Z)-(3-cyclohexyl-4-oxo-2-thioxo-1,3-thiazolidin-5-ylidene)methyl]-2-furyl}benzoic acid], on APC2/APC11, the IC50 is 400 nM and 700 nM.
The compound `O=C1/C(=C/c2ccc(-c3ccc([N+](=O)[O-])cc3)o2)SC(=S)N1Cc1ccccc1` [Compound 199, (5Z)-3-benzyl-5-{[5-(4-nitrophenyl)-2-furyl]methylene}-2-thioxo-1,3-thiazolidin-4-one] returned an IC50 against APC2/APC11 of 100 nM.
For the compound `CN1C(=O)/C(=C/c2ccc(-c3cccc4ccccc34)o2)SC1=S` [Compound 33, (5Z)-3-methyl-5-{[5-(1-naphtthyl)-2-furyl]methylene}-2-thioxo-1,3-thiazolidin-4-one], at MDM2/P53, the IC50 was found to be 6100 nM.
